According to EP4603477A1, “INHIBITORS OF THE CORONAVIRUS ACCESSORY PROTEIN ORF9B” (Consejo Superior De Investigaciones Científicas, priority 2024, dated 2025):
Like-named read-outs stand apart in the source and are kept apart here.

What was measured:
THP-1. ORF9b cells = type: cell-based; conditions: 10 ng/mL interferon-β1 4 h, inhibitor 1 µM 1 h
[1] = molecular target: T1, Recombinant SARS-CoV-2 GST-ORF9b protein (Severe acute respiratory syndrome coronavirus 2, UniProt P0DTD2); experiment: Surface plasmon resonance, ORF9b-ORF9b homotypic interaction; type: binding; conditions: mobile-phase GST-ORF9b pre-incubated with 5 µM compound
T1 construct: purchased BPS Bioscience
T1 sequence (P0DTD2 whole entry): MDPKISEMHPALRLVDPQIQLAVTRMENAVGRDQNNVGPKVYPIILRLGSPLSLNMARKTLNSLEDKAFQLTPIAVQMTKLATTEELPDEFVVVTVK

THP-1.ORF9b cells = type: cell-based
A549.ORF9b cells [2] = experiment: Fluorescence microscopy, co-localization of ORF9b and mitochondria; type: cell-based
A549.ORF9b = type: cell-based; conditions: A549.ORF9b cells; 10 ng/mL interferon-β1 4 h, inhibitor 1 µM 1 h
A549.ORF9b cells [3] = type: cell-based
A549wt cells = type: cell-based; conditions: both without and with LPS+ATP, MCC950 for the last 3 h
[4] = THP-1 monocyte-macrophage cells, low micromolar concentrations (Fig. 9B)
[5] = A549 lung epithelial cells, low micromolar concentrations (Fig. 9A)

Nc1ccc(F)c(NC(=O)Cc2ccccc2)c1 [Compound 1]
restoration of IFN-β induced expression of OAS3 and ISG15 mitigated by ORF9b (THP-1. ORF9b cells): largely restored | Binding of GST-ORF9b to immobilized GST-ORF9b [1]: significantly inhibited | inhibition of ORF9b-induced caspase-1 activation (THP-1.ORF9b cells; THP-1.ORF9b cells): significantly inhibited | inhibition of the activation of caspase-1 induced by ORF9b (THP-1.ORF9b cells; THP-1.ORF9b cells, 5 µM, 3 h (Fig. 7)): inhibits | mitochondrial eviction of ORF9b (A549.ORF9b cells [2]; 2.5 µM, 4 h (Fig. 8)): causes mitochondrial eviction | mitochondrial eviction of ORF9b (A549.ORF9b cells [2]; low micromolar concentrations): rapid and remarkable partial eviction | restoration of IFN-β induced expression of OAS3 and ISG15 mitigated by ORF9b (A549.ORF9b): largely restored | inhibition of ORF9b-induced caspase-1 activation (A549.ORF9b cells [3]; A549.ORF9b cells): significantly inhibited | inhibition of the activation of caspase-1 induced by ORF9b (A549.ORF9b cells [3]; A549.ORF9b cells, 5 µM, 3 h (Fig. 6)): inhibits | logP (physchem): 2.14

Nc1ccc(F)c(NC(=O)c2cccc3ccccc23)c1 [Compound 2, N-(5-Amino-2-fluorophenyl)-1-naphthamide]
restoration of IFN-β induced expression of OAS3 and ISG15 mitigated by ORF9b (THP-1. ORF9b cells): largely restored | inhibition of ORF9b-induced caspase-1 activation (THP-1.ORF9b cells; THP-1.ORF9b cells): inhibited | inhibition of the activation of caspase-1 induced by ORF9b (THP-1.ORF9b cells; [4]): inhibit | mitochondrial eviction of ORF9b (A549.ORF9b cells [2]; 5 µM, 4 h (Fig. 11)): induce mitochondrial eviction | mitochondrial eviction of ORF9b (A549.ORF9b cells [2]; low micromolar concentrations): capable of causing mitochondrial eviction | restoration of IFN-β induced expression of OAS3 and ISG15 mitigated by ORF9b (A549.ORF9b): largely restored | inhibition of ORF9b-induced caspase-1 activation (A549.ORF9b cells [3]; A549.ORF9b cells): inhibited | inhibition of the activation of caspase-1 induced by ORF9b (A549.ORF9b cells [3]; [5]): inhibit | logP (physchem): 3.19

Cc1ccc(N)c(NC(=O)Cc2ccc(F)cc2)c1 [Compound 3, N-(2-Amino-5-methylphenyl)-2-(4-fluorophenyl)acetamide]
inhibition of ORF9b-induced caspase-1 activation (THP-1.ORF9b cells; THP-1.ORF9b cells): much lower or no | mitochondrial eviction of ORF9b (A549.ORF9b cells [2]; low micromolar concentrations): did not cause mitochondrial eviction | inhibition of ORF9b-induced caspase-1 activation (A549.ORF9b cells [3]; A549.ORF9b cells): much lower or no | logP (physchem): 2.63

COc1ccc(CC(=O)Nc2cc(N)ccc2F)cc1 [Compound 4, N-(5-Amino-2-fluorophenyl)-2-(4-methoxyphenyl)acetamide]
inhibition of ORF9b-induced caspase-1 activation (THP-1.ORF9b cells; THP-1.ORF9b cells): inhibited | inhibition of the activation of caspase-1 induced by ORF9b (THP-1.ORF9b cells; [4]): inhibit | inhibition of ORF9b-induced caspase-1 activation (A549.ORF9b cells [3]; A549.ORF9b cells): inhibited | inhibition of the activation of caspase-1 induced by ORF9b (A549.ORF9b cells [3]; [5]): inhibit | logP (physchem): 2.01

Nc1ccc(F)c(NC(=O)Cc2ccc(Cl)cc2)c1 [Compound 5, N-(5-Amino-2-fluorophenyl)-2-(4-chlorophenyl)acetamide]
inhibition of ORF9b-induced caspase-1 activation (THP-1.ORF9b cells; THP-1.ORF9b cells): inhibited | inhibition of the activation of caspase-1 induced by ORF9b (THP-1.ORF9b cells; [4]): inhibit | inhibition of ORF9b-induced caspase-1 activation (A549.ORF9b cells [3]; A549.ORF9b cells): inhibited | inhibition of the activation of caspase-1 induced by ORF9b (A549.ORF9b cells [3]; [5]): inhibit | logP (physchem): 2.7

O=C(Cc1ccc(Cl)cc1)Nc1cc([N+](=O)[O-])ccc1F [Compound 6, 2-(4-Chlorophenyl)-N-(2-fluoro-5-nitrophenyl)acetamide]
restoration of IFN-β induced expression of OAS3 and ISG15 mitigated by ORF9b (THP-1. ORF9b cells): largely restored | inhibition of ORF9b-induced caspase-1 activation (THP-1.ORF9b cells; THP-1.ORF9b cells): inhibited | inhibition of the activation of caspase-1 induced by ORF9b (THP-1.ORF9b cells; [4]): inhibit | mitochondrial eviction of ORF9b (A549.ORF9b cells [2]; 5 µM, 4 h (Fig. 11)): induce mitochondrial eviction | mitochondrial eviction of ORF9b (A549.ORF9b cells [2]; low micromolar concentrations): capable of causing mitochondrial eviction | restoration of IFN-β induced expression of OAS3 and ISG15 mitigated by ORF9b (A549.ORF9b): largely restored | inhibition of ORF9b-induced caspase-1 activation (A549.ORF9b cells [3]; A549.ORF9b cells): inhibited | inhibition of the activation of caspase-1 induced by ORF9b (A549.ORF9b cells [3]; [5]): inhibit | logP (physchem): 3.47

COc1ccc(CC(=O)Nc2cc([N+](=O)[O-])ccc2F)cc1 [Compound 7, N-(2-Fluoro-5-nitrophenyl)-2-(4-methoxyphenyl)acetamide]
inhibition of ORF9b-induced caspase-1 activation (THP-1.ORF9b cells; THP-1.ORF9b cells): inhibited | inhibition of the activation of caspase-1 induced by ORF9b (THP-1.ORF9b cells; [4]): inhibit | inhibition of ORF9b-induced caspase-1 activation (A549.ORF9b cells [3]; A549.ORF9b cells): inhibited | inhibition of the activation of caspase-1 induced by ORF9b (A549.ORF9b cells [3]; [5]): inhibit | logP (physchem): 2.98

Cc1ccc([N+](=O)[O-])c(NC(=O)Cc2ccc(F)cc2)c1 [Compound 8, N-(2-Nitro-5-methylphenyl)-2-(4-fluorophenyl)acetamide]
inhibition of ORF9b-induced caspase-1 activation (THP-1.ORF9b cells; THP-1.ORF9b cells): much lower or no | mitochondrial eviction of ORF9b (A549.ORF9b cells [2]; low micromolar concentrations): did not cause mitochondrial eviction | inhibition of ORF9b-induced caspase-1 activation (A549.ORF9b cells [3]; A549.ORF9b cells): much lower or no | logP (physchem): 3.27

O=C(Cc1ccccc1)Nc1cc([N+](=O)[O-])ccc1F [Compound 9, N-(2-Fluoro-5-nitrophenyl)-2-phenylacetamide]
logP (physchem): 2.85

CC(C)(O)c1coc(S(=O)(=O)NC(=O)Nc2c3c(cc4c2CCC4)CCC3)c1 [MCC950, reference compound]
induction of caspase-1 activation by SARS-CoV-2 accessory proteins (A549wt cells): abolished
